Data published in ChEMBL document CHEMBL1140554, “2-Aryl-3,3,3-trifluoro-2-hydroxypropionic acids: a new class of protein tyrosine phosphatase 1B inhibitors” (Bioorg Med Chem Lett, 2007).
Activity calls are given as the source filed them. No cut-off for these calls is given here.

These compounds were tested against T1, Tyrosine-protein phosphatase non-receptor type 1 (Homo sapiens) (UniProt P18031) (assay: Inhibition of PTP1B expressed in Sf9 cells at 400 uM).
T1 sequence (whole entry): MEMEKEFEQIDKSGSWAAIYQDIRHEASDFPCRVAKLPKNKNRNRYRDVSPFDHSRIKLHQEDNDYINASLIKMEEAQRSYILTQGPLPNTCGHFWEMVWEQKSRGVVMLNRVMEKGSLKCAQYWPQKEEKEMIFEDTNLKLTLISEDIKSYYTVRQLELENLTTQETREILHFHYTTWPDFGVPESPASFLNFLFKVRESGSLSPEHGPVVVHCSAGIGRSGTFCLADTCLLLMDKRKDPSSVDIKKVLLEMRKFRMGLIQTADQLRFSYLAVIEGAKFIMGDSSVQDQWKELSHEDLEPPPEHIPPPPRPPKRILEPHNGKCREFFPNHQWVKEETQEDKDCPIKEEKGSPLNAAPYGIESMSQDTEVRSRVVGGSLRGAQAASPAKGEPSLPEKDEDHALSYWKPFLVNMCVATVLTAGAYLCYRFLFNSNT

For `COCn1cc(C(O)(C(=O)O)C(F)(F)F)c2cc(OCc3ccccc3)ccc21` (stereo not given), the Activity was “inactive”.
`COCn1cc(C(O)(C(=O)O)C(F)(F)F)c2ccccc21` (stereo not given) was tested, and the Activity was “inactive”.

Each compound was assayed against T2, Tyrosine-protein phosphatase non-receptor type 1 (Homo sapiens, UniProt P18031) (assay: Inhibition of PTP1B in a cell-free assay).
T2 sequence (P18031 whole entry): T1 sequence (whole entry)

`Cc1nc(-c2ccc(Cl)cc2)sc1CCOc1cc(C(O)(C(=O)O)C(F)(F)F)ccc1OCc1ccccc1` (stereo not given) gave an IC50 of 3 µM.

What follows are compounds tested against T2, Tyrosine-protein phosphatase non-receptor type 1 (assay: Inhibition of PTP1B expressed in Sf9 cells).

Going from `COCn1cc(C(O)(C(=O)O)C(F)(F)F)c2cc(OCCc3sc(-c4ccc(Cl)cc4)nc3C)ccc21` (stereo not given) to `Cc1nc(-c2ccc(Cl)cc2)sc1CCOc1ccc2c(c1)c(C(O)(C(=O)O)C(F)(F)F)cn2COCC[Si](C)(C)C` (stereo not given), the IC50 falls from 59 µM to 32 µM (1.8-fold). The second is the more potent here.

Compared with `Cc1nc(-c2ccc(Cl)cc2)sc1CCOc1cc(C(O)(C(=O)O)C(F)(F)F)ccc1OCC(=O)O` (stereo not given), `Cc1nc(-c2ccc(Cl)cc2)sc1CCOc1cc(C(O)(C(=O)O)C(F)(F)F)ccc1O` (stereo not given) is 4.8-fold lower in IC50: 500 µM for the first, 105 µM for the second. The second is the more potent here.

Compared with `Cc1nc(-c2ccc(Cl)cc2)sc1CCOc1cc(C(O)(C(=O)O)C(F)(F)F)ccc1OCc1ccc(F)cc1` (stereo not given), `COc1ccc(COc2ccc(C(O)(C(=O)O)C(F)(F)F)cc2OCCc2sc(-c3ccc(Cl)cc3)nc2C)cc1` (stereo not given) is 1.9-fold lower in IC50: 23 µM for the first, 12 µM for the second.

`COC(=O)c1c(O)cccc1OC/C=C/c1ccc(F)c(-c2cc(C(=O)O)no2)c1` and `COC(=O)c1c(O)cccc1OCCOc1ccc2c(c1)c(C(O)(C(=O)O)C(F)(F)F)cn2COCC[Si](C)(C)C` (stereo not given) are within 1.5-fold of each other in IC50: 110 µM for the first, 123 µM for the second.

Going from `Cc1nc(-c2ccc(Cl)cc2)sc1CCOc1cccc(C(O)(C(=O)O)C(F)(F)F)c1` (stereo not given) to `CCCCCOc1ccc(C(O)(C(=O)O)C(F)(F)F)cc1OCCc1sc(-c2ccc(Cl)cc2)nc1C` (stereo not given), the IC50 falls from 37 µM to 12 µM (3.1-fold). The second is the more potent here.

First: Cc1nc(-c2ccc(Cl)cc2)sc1CCOc1ccc2c(c1)c(C(O)(C(=O)O)C(F)(F)F)cn2Cc1ccccc1 (stereo not given)
Second: Cc1nc(-c2ccc(Cl)cc2)sc1CCOc1cc(C(O)(C(=O)O)C(F)(F)F)ccc1OCc1ccccc1 (stereo not given)
The IC50 of the first is 8.4-fold higher: 27 µM for the first, 3.2 µM for the second. The second is the more potent here.

Compared with `COCn1cc(C(O)(C(=O)O)C(F)(F)F)c2ccc(OCc3ccccc3)cc21` (stereo not given), `COCn1cc(C(O)(C(=O)O)C(F)(F)F)c2cccc(OCc3ccccc3)c21` (stereo not given) is 2.2-fold lower in IC50: 382 µM for the first, 176 µM for the second.

First: O=C(c1ccccc1)C(c1ccccc1)c1ccc(C(F)(F)P(=O)(O)O)cc1 (stereo not given)
Second: Cc1nc(-c2ccc(Cl)cc2)sc1CCOc1cc(C(O)(C(=O)O)C(F)(F)F)ccc1OCCc1ccccc1 (stereo not given)
The IC50 of the first is 8.3-fold lower: 1.2 µM for the first, 10 µM for the second. The first is the more potent here.

`Cc1nc(-c2ccc(Cl)cc2)sc1CCOc1cc(C(O)(C(=O)O)C(F)(F)F)ccc1OCc1ccncc1` (stereo not given) was tested, and the IC50 was 36 µM.
